pIC50: −log10 of the molar value.

Drawing on patent US9556202B2, “Sulfonamide derivatives and methods of use thereof for improving the pharmacokinetics of a drug” (MERCK SHARP & DOHME CORP., priority 2012, dated 2017), this text covers IC50 for 38 molecules.

This assay deals with T1, CYP3A4 (Homo sapiens, UniProt P08684).
T1 construct: 0.01 mg/mL protein human liver microsomes (BD Gentest); tissue BD Gentest; host or cells: human liver microsomes
Briefly: IC50 vs CYP3A by inhibition of lopinavir metabolism in human liver microsomes. The class given is biochemical. The settings on record: human liver microsomes 0.01 mg/mL, 1.5 μM lopinavir, 8 min 37° C.; test conc. e.g. 0.098-100 nM; unit inferred; read-out: 3A4(LPV). Here is the method: Determination of IC50 Vs CYP3A by Measurement of Inhibition of Lopinavir Metabolism
This assay was performed in a standard 96-well plate design. IC50 values were calculated from the percent inhibition observed for each test compound at 6 concentrations (for example, 0.098, 0.391, 1.56, 6.25, 25 and 100 nM). The incubation substrate mix contains 1.5 μM lopinavir, 0.01 mg/mL protein human liver microsomes (BD Gentest), 1 mM NAPDH, 3.3 mM MgCl2 and 100 mM potassium phosphate buffer (pH 7.4). The production of the sum of three hydroxylated metabolites (M2: 6-hydroxy lopinavir, M3: 4-hydroxy lopinavir, M4: 4-hydroxy lopinavir (epimer of M3), Kumar et al., 1999) was determined after incubation for 8 min at 37° C. Quantitation of the metabolite peak area ratio against an internal standard (tolbutamide) was determined by LC/MS/MS analysis following acetonitrile treatment of the incubations.
Samples were analyzed in the MRM mode with a SCIEX API-4000 mass spectrometer (Applied Biosystems, Foster City, Calif.), with a Shimadzu LC-20 AD pump (Shimadzu corporation, Kyoto, JP) and a CTC PAL autosampler (Agilent Technologies, Switzerland). A Phenomenex, Luna, 5 μm, 100 A, 2.00×30 mm HPLC column was used for the separation. The mobile phases were: (A) 0.1% formic acid in water and (B) 0.1% formic acid in acetonitrile. The binary gradient was as follows.
The peak area ratio of the analyte to the internal standard was used to quantify the metabolite. The values of peak area ratios in the presence of test compound were compared to those of maximum or minimum controls and were expressed as % inhibition by interpolating between the maximum and minimum peak area ratios. Incubations with no inhibitor were defined as the maxima and with 5 μM ketoconazole were defined as the minima.
The following equation was used to calculate the % inhibition: [1−[(X−Low control)/(High control−Low control)]]*100
For the IC50 calculation, SigmaPlot was used to plot the mean % inhibition versus the test compound concentrations and for non-linear regression analysis of the data. Depending on the range of data points defining the inhibition curve, the data may have been fit to the 4-parameter logistic equation.
(Liver microsomes are vesicles of endoplasmic reticulum, rich in cytochrome P450 enzymes.)

T1 sequence (P08684 2-503): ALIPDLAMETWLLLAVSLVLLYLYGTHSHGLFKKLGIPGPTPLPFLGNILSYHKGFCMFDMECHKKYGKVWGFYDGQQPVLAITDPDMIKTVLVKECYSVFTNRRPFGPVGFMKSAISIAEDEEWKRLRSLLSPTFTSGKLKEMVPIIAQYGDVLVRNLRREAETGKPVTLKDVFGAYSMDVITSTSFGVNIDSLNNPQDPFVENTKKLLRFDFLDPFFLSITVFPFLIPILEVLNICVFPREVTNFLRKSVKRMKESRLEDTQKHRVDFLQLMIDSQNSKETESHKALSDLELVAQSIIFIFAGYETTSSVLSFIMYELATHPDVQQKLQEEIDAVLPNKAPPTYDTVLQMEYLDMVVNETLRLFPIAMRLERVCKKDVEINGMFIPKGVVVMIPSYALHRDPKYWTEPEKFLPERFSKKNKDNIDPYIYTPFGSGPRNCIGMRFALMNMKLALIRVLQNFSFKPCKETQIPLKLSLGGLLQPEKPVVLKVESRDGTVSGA

For the molecule `C[C@H](c1ccc(F)cc1)n1cncc1C1CC12CCN(S(=O)(=O)c1cnc(N3CCN(C)CC3)s1)CC2` (single isomer, unassigned) [Compound 43a], the pIC50 was 8.22.
As to `C[C@H](c1ccc(F)cc1)n1cncc1CN1CCN(S(=O)(=O)c2cnc(N3CCC(S(C)(=O)=O)C3)s2)CC1` (some centres unmarked) [Compound 8], the pIC50 was 8.74.
Then `CC1CN(c2ncc(S(=O)(=O)N3CCN(Cc4cncn4[C@H](C)c4ccc(F)cc4)CC3)s2)C[C@@H]2C[C@@H](O)CN12` (some centres unmarked) [Compound 23], with 8.80; and `C[C@H](c1ccc(F)cc1)n1cncc1CN1CCN(S(=O)(=O)c2cnc(N3CCN(C4CCN(C)CC4)CC3)s2)CC1` [Compound 9], with 8.55.
In the case of `C[C@H](c1ccc(F)cc1)n1cncc1CN1CCN(S(=O)(=O)c2cnc(NCC(F)CN)s2)CC1` (some centres unmarked) [Compound 17], the pIC50 was 8.77.
In the case of `C[C@H](c1ccc(F)cc1)n1cncc1CN1CCN(S(=O)(=O)c2ccc(N3CCNCC3)cn2)CC1` [Compound 28], the pIC50 is 8.36.
As to `C[C@H](c1ccc(F)cc1)n1cncc1CN1CCN(S(=O)(=O)c2cnc(N3CC(=O)N4C[C@H](O)C[C@H]4C3)s2)CC1` [Compound 16], the pIC50 was 8.28.
Then `C[C@H](c1ccc(F)cc1)n1cncc1CC1CCN(S(=O)(=O)c2cnc(N3CCN(C)CC3)s2)CC1` [Compound 44], with 8.96; and `C[C@H](c1ccc(F)cc1)n1cncc1C1CC12CCN(S(=O)(=O)c1cnc(N3CCN(C)CC3)s1)CC2` (single isomer, unassigned) [Compound 43b], with 8.70.
Then `C[C@H](c1ccc(F)cc1)n1cnnc1CN1CCN(S(=O)(=O)c2cnc(N3CCN4C[C@H](O)C[C@H]4C3)s2)CC1` [Compound 42], with 7.49; and `C[C@H](c1ccc(F)cc1)n1cncc1CC1(C#N)CCN(S(=O)(=O)c2cnc(N3CCN(C)CC3)s2)CC1` [Compound 48], with 8.03.
Then `C[C@H](c1ccc(F)cc1)n1cncc1C1COCC2CN(S(=O)(=O)c3cnc(Nc4ccccn4)s3)CCN21` (some centres unmarked) [Compound 40], with 9.10; and `C[C@H](c1ccc(F)cc1)n1cncc1CN1CCN(S(=O)(=O)c2cncc(N3CCNCC3)c2)CC1` [Compound 29], with 8.54.
As to `C[C@H](c1ccc(C#N)cc1)n1cncc1CN1CCN(S(=O)(=O)c2cnc(Nc3ccc(C(F)(F)F)cn3)s2)CC1` [Compound 4], the pIC50 is greater than 10.00.
In the case of `CC(c1cncn1[C@H](C)c1ccc(F)cc1)N1CCN(S(=O)(=O)c2cnc(N3CCN4C[C@H](O)C[C@H]4C3)s2)CC1` (some centres unmarked) [Compound 37], the pIC50 was 8.39.
Turning to `C[C@H](c1ccc(F)cc1)n1cncc1CN1CCN(S(=O)(=O)c2cnc(N3CCC4(CC3)CNC(=O)N4)s2)CC1` [Compound 3], the pIC50 is 8.57.
Then `C[C@H](c1ccc(F)cc1)n1cncc1CN1CCN(S(=O)(=O)c2cnc(N3CC[C@@H](N)[C@H](F)C3)s2)CC1` [Compound 12], with 9.00.
Then `C[C@H](c1ccc(F)cc1)n1cncc1CN1CCN(S(=O)(=O)c2cnc(N3CCN4C(=O)OC[C@H]4C3)s2)CC1` [Compound 26], with 8.82.
Then `C[C@H](c1ccc(F)cc1)n1cncc1CN1CCN(S(=O)(=O)c2cnc(N3C[C@@H]4C[C@@H](O)CN4C[C@@H]3C)s2)CC1` [Compound 21], with 8.72.
With `CN1CCN(c2ncc(S(=O)(=O)N3CCN(Cc4cncn4CCOc4ccc(F)cn4)CC3)s2)CC1` [Compound 33], the pIC50 was 8.64.
Then `C[C@H](c1ccc(F)cc1)n1cncc1CN1CCN(S(=O)(=O)c2cnc(N3CC[C@@H]4OCCN[C@H]4C3)s2)CC1` [Compound 13], with 8.85.
Then `C[C@H](c1ccc(F)cc1)n1cncc1CN1CCN(S(=O)(=O)c2cnc(N3CCN4C[C@H](O)C[C@H]4C3)s2)CC1` [Compound 5], with 8.42; and `C[C@H](c1ccc(F)cc1)n1cncc1CN1CCN(S(=O)(=O)c2cnc(N3CC[C@@H](N4CCOCC4)[C@H](F)C3)s2)CC1` [Compound 20], with 8.39; and `C[C@H](c1ccc(F)cc1)n1cncc1CN1CCN(S(=O)(=O)c2cnc(N3CCN(C)CC3)s2)CC1` [Compound 2], with 9.00.
Then `C[C@H](c1ccc(F)cc1)n1cncc1C1CN(C)CC2CN(S(=O)(=O)c3cnc(Nc4ccccn4)s3)CCN21` (some centres unmarked) [Compound 41], with 8.68; and `C[C@H](c1ccc(F)cc1)n1cncc1CN1CCN(S(=O)(=O)c2cnc(N3CCC(N)(CO)CC3)s2)CC1` [Compound 25], with 8.72; and `C[C@H](c1ccc(F)cc1)n1cncc1CN1CCN(S(=O)(=O)c2cnc(N3CCN4CCC(O)[C@H]4C3)s2)CC1` (some centres unmarked) [Compound 27], with 8.59.
Take `C[C@H](c1ccc(F)cc1)n1cncc1CN1CCN(S(=O)(=O)c2cnc(N3CCNCC3)s2)CC1` [Compound 1]: the pIC50 was 8.85.
Then `C[C@H](c1ccc(F)cc1)n1cncc1C1C(=O)OCC2CN(S(=O)(=O)c3cnc(Nc4ccc(C(F)(F)F)cn4)s3)CCN21` (some centres unmarked) [Compound 39], with 8.10; and `CN1CCN(c2ncc(S(=O)(=O)N3CCN(Cc4cncn4CCOc4ccc(Cl)cc4)CC3)s2)CC1` [Compound 32], with 8.92; and `C[C@H](c1ccc(F)cc1)n1cncc1CN1CCN(S(=O)(=O)c2cnc(N3CC[C@@H]4NCCO[C@H]4C3)s2)CC1` [Compound 15], with 8.92.
Then `C[C@H](c1ccc(F)cc1)n1cncc1CC1(CO)CCN(S(=O)(=O)c2cnc(N3CCN(C)CC3)s2)CC1` [Compound 47], with 7.89.
Then `Cc1ccc(C2(n3cncc3CN3CCN(S(=O)(=O)c4cnc(N5CCN(C)CC5)s4)CC3)CC2)nc1` [Compound 31], with 8.36; and `C[C@H](c1ccc(F)cc1)n1cncc1CN1CCN(S(=O)(=O)c2cnc(N3CCN4C[C@H](O)C[C@H]4C3=O)s2)CC1` [Compound 18], with 8.96.
For the molecule `C[C@H](c1ccc(F)cc1)n1cncc1CN1CCN(S(=O)(=O)c2cnc(N3CCN4C[C@H](O)CC[C@H]4C3)s2)CC1` [Compound 19], the pIC50 is 8.77.
As to `C[C@H](c1ccc(F)cc1)n1cncc1CN1CCN(S(=O)(=O)c2cnc(N3CCN4C[C@H](O)CC4(C)C3)s2)CC1` (some centres unmarked) [Compound 24], the pIC50 is 8.72.
Then `C[C@H](c1ccc(F)cc1)n1cncc1CN1CCN(S(=O)(=O)c2cnc(N3CCNCC3)cn2)CC1` [Compound 30], with 8.44; and `C[C@H](c1ccc(F)cc1)n1cncc1CN1CCN(S(=O)(=O)c2cnc(N3CCN4C[C@H](O)C[C@@H]4C3)s2)CC1` [Compound 6], with 8.85.
